Results taken from the supplement of paper PMC11208160.

assay: recombinant barcode read abundance after kanamycin selection (control-corrected) (log10(CPM+1)); higher = more efficient recombination; sequences stand for … in AGTGCAGAGAAAATCGGCCAGTTTTCTCTGCCTGCAGTCCGCATGCCGT…AGATTTATGCAGCGGACTGCCTTTCTCCCAAAGTGATAAACCGGACAGTATCATGGACCGGTTTTCCCGGTAATCCGTATTTGCAAGGTTGGTTTCACT; site = the 11-nt target
In short: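 Recombination efficiency in this pooled E. coli screen uses counts per million of barcodes at recombinant junctions, averaged and corrected against the control. The reported form is log10(CPM+1). Two replicates were plated on chloramphenicol/ampicillin LB agar as control and two on chloramphenicol/ampicillin/kanamycin with 0.1 mM IPTG.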
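Note: IS621 recombinase and bridge RNA in Escherichia coli cells.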

| Sequence | recombinant barcode read abundance (log10) |
| --- | --- |
| TTAGACTCTTGGGTTCTAACCTGTTGCCT (site TTCGACGCTAG) | 0.172 |
| TTAGACTCTTGGGTTCTAACCTGTTGCTA (site TTAGACTCTTA) | 2.36 |
| TTAGACTCTTGGGTTCTAACCTGTTGCTA (site TTAGACTCTTG) | 1.25 |
| TTAGAGACTTGGGTTCTAACCTGTTGCCT (site TTAGAGACTAG) | 2.32 |
| TTAGAGACTTGGGTTCTAACCTGTTGCCT (site TTAGAGCCTAG) | 0.303 |
| TTAGAGACTTGGGTTCTAACCTGTTGCCT (site TTAGAGGCTAG) | 1.4 |
| TTAGAGACTTGGGTTCTAACCTGTTGCCT (site TTAGAGTCTAG) | 0.195 |
| TTAGATCCTTGGGTTCTAACCTGTTGCAT (site TTAGATCCTAT) | 1.62 |
| TTAGATCCTTGGGTTCTAACCTGTTGCAT (site TTAGGTCCTCT) | 0.00789 |
| TTAGGGCCTTGGGTTCTAACCTGTTGCCT (site TTAGGGACTAG) | 0.0406 |
| TTAGGGCCTTGGGTTCTAACCTGTTGCCT (site TTAGGGCCTAG) | 0.719 |
| TTAGGGCCTTGGGTTCTAACCTGTTGCCT (site TTAGGGGCTAG) | 0.0469 |
| TTAGGGCCTTGGGTTCTAACCTGTTGCCT (site TTAGGGTCTAG) | 0.0494 |
| TTAGGTCCTTGGGTTCTAACCTGTTGCTT (site TTAAGTCCTAT) | 0.357 |
| TTAGGTCCTTGGGTTCTAACCTGTTGCTT (site TTAGGTCCTAA) | 1.64 |
| TTAGTAGCTTGGGTTCTAACCTGTTGCCT (site TTAGTAGCTAG) | 1.84 |
| TTAGTAGCTTGGGTTCTAACCTGTTGCCT (site TTAGTCGCTAG) | 0.0769 |
| TTAGTAGCTTGGGTTCTAACCTGTTGCCT (site TTAGTGGCTAG) | 0.0632 |
| TTAGTAGCTTGGGTTCTAACCTGTTGCCT (site TTAGTTGCTAG) | 0.0874 |
| TTAGTCCCTTGGGTTCTAACCTGTTGCCT (site TTAGTACCTAG) | 0.113 |
| TTAGTCCCTTGGGTTCTAACCTGTTGCCT (site TTAGTCCCTAG) | 2.42 |
| TTAGTCCCTTGGGTTCTAACCTGTTGCCT (site TTAGTGCCTAG) | 0.202 |

| Sequence | recombinant barcode read abundance (log10) |
| --- | --- |
| TTAGTCCCTTGGGTTCTAACCTGTTGCCT (site TTAGTTCCTAG) | 0.0847 |
| TTAGTGGCTTGGGTTCTAACCTGTTGCCT (site TTAGTAGCTAG) | 0.607 |
| TTAGTGGCTTGGGTTCTAACCTGTTGCCT (site TTAGTCGCTAG) | 0.0499 |
| TTAGTGGCTTGGGTTCTAACCTGTTGCCT (site TTAGTGGCTAG) | 0.978 |
| TTAGTGGCTTGGGTTCTAACCTGTTGCCT (site TTAGTTGCTAG) | 0.0338 |
| TTATCCGCTTGGGTTCTAACCTGTTGCCT (site CGTAGACCTTA) | 0.0341 |
| TTATCCGCTTGGGTTCTAACCTGTTGCCT (site TTATCCGCTAG) | 1.77 |
| TTATCTCCTTGGGTTCTAACCTGTTGCTT (site TCGTCTCCTAA) | 0.0381 |
| TTATCTCCTTGGGTTCTAACCTGTTGCTT (site TTATCTCCTAA) | 0.205 |
| TTCAAAACTTGGGTTCTAACCTGTTGCCT (site TTCAAAACTAG) | 0.103 |
| TTCAAAACTTGGGTTCTAACCTGTTGCCT (site TTCAAACCTAG) | 0.0651 |
| TTCAAAACTTGGGTTCTAACCTGTTGCCT (site TTCAAAGCTAG) | 0.0504 |
| TTCAAAACTTGGGTTCTAACCTGTTGCCT (site TTCAAATCTAG) | 0.0229 |
| TTCAAAGCTTGGGTTCTAACCTGTTGCCT (site TTCAAAACTAG) | 0.0225 |
| TTCAAAGCTTGGGTTCTAACCTGTTGCCT (site TTCAAACCTAG) | 0.0449 |
| TTCAAAGCTTGGGTTCTAACCTGTTGCCT (site TTCAAAGCTAG) | 0.0407 |
| TTCAAAGCTTGGGTTCTAACCTGTTGCCT (site TTCAAATCTAG) | 0.0721 |
| TTCACAGCTTGGGTTCTAACCTGTTGCCT (site TTCACACCTAG) | 0.0537 |
| TTCACAGCTTGGGTTCTAACCTGTTGCCT (site TTCACAGCTAG) | 0.133 |
| TTCACGCCTTGGGTTCTAACCTGTTGCCT (site TTCACGCCTAG) | 0.187 |
| TTCACGCCTTGGGTTCTAACCTGTTGCCT (site TTCCCGCCTAG) | 0.127 |
| TTCACGCCTTGGGTTCTAACCTGTTGCCT (site TTCGCGCCTAG) | 0.0353 |

| Sequence | recombinant barcode read abundance (log10) |
| --- | --- |
| TTCACGCCTTGGGTTCTAACCTGTTGCCT (site TTCTCGCCTAG) | 0.214 |
| TTCACGGCTTGGGTTCTAACCTGTTGCCT (site TTAACGGCTAG) | 0.223 |
| TTCACGGCTTGGGTTCTAACCTGTTGCCT (site TTCACGGCTAG) | 0.0164 |
| TTCCAATCTTGGGTTCTAACCTGTTGCCA (site TGCCAATCTAG) | 0.0654 |
| TTCCAATCTTGGGTTCTAACCTGTTGCCA (site TTCCAATCTTG) | 0.713 |
| TTCCCCACTTGGGTTCTAACCTGTTGCCT (site AATATAGCTTA) | 0.115 |
| TTCCCCACTTGGGTTCTAACCTGTTGCCT (site TTCCCCACTAG) | 1.11 |
| TTCCCGCCTTGGGTTCTAACCTGTTGCCT (site TTCACGCCTAG) | 0.0618 |
| TTCCCGCCTTGGGTTCTAACCTGTTGCCT (site TTCCCGCCTAG) | 0.543 |
| TTCCCGCCTTGGGTTCTAACCTGTTGCCT (site TTCGCGCCTAG) | 0.489 |
| TTCCCGCCTTGGGTTCTAACCTGTTGCCT (site TTCTCGCCTAG) | 0.155 |
| TTCCGAGCTTGGGTTCTAACCTGTTGCGG (site TGTCGAGCTCC) | 0.0848 |
| TTCCGAGCTTGGGTTCTAACCTGTTGCGG (site TTCCGAGCTCC) | 1.01 |
| TTCGAAACTTGGGTTCTAACCTGTTGCGT (site TCCGAGACTAC) | 0.221 |
| TTCGAAACTTGGGTTCTAACCTGTTGCGT (site TTCGAAACTAC) | 1.46 |
| TTCGCATCTTGGGTTCTAACCTGTTGCTT (site CCAAGGCCTCG) | 0.209 |
| TTCGCATCTTGGGTTCTAACCTGTTGCTT (site TTCGCATCTAA) | 0.178 |
| TTCGTAGCTTGGGTTCTAACCTGTTGCCT (site TTCGTAGCTAC) | 0.0736 |
| TTCGTAGCTTGGGTTCTAACCTGTTGCCT (site TTCGTAGCTAG) | 1.22 |
| TTCGTTGCTTGGGTTCTAACCTGTTGCCT (site ATCGTTGCTAG) | 0.0494 |
| TTCGTTGCTTGGGTTCTAACCTGTTGCCT (site CTCGTTGCTAG) | 0.41 |
| TTCGTTGCTTGGGTTCTAACCTGTTGCCT (site GTCGTTGCTAG) | 0.0105 |

| Sequence | recombinant barcode read abundance (log10) |
| --- | --- |
| TTCGTTGCTTGGGTTCTAACCTGTTGCCT (site TTCGTTGCTAG) | 0.302 |
| TTCTAGACTTGGGTTCTAACCTGTTGCGG (site TCCTAGACTCC) | 0.189 |
| TTCTAGACTTGGGTTCTAACCTGTTGCGG (site TTCTAGACTCC) | 1.94 |
| TTCTATCCTTGGGTTCTAACCTGTTGCCT (site TTCTATCCTAG) | 0.486 |
| TTCTATCCTTGGGTTCTAACCTGTTGCCT (site TTCTCTCCTAG) | 0.286 |
| TTCTATCCTTGGGTTCTAACCTGTTGCCT (site TTCTGTCCTAG) | 0.0469 |
| TTCTATCCTTGGGTTCTAACCTGTTGCCT (site TTCTTTCCTAG) | 0.094 |
| TTCTATGCTTGGGTTCTAACCTGTTGCGT (site AAGCGCTCTCA) | 0.0654 |
| TTCTATGCTTGGGTTCTAACCTGTTGCGT (site TTCTATGCTAC) | 0.131 |
| TTCTGAGCTTGGGTTCTAACCTGTTGCCT (site TTCTGAGCTAG) | 0.184 |
| TTCTGAGCTTGGGTTCTAACCTGTTGCCT (site TTCTGCGCTAG) | 0.0635 |
| TTCTGAGCTTGGGTTCTAACCTGTTGCCT (site TTCTGGGCTAG) | 0.115 |
| TTCTGAGCTTGGGTTCTAACCTGTTGCCT (site TTCTGTGCTAG) | 0.0128 |
| TTCTGTGCTTGGGTTCTAACCTGTTGCCT (site TTCTGAGCTAG) | 0.0672 |
| TTCTGTGCTTGGGTTCTAACCTGTTGCCT (site TTCTGCGCTAG) | 0.0701 |
| TTCTGTGCTTGGGTTCTAACCTGTTGCCT (site TTCTGGGCTAG) | 0.0555 |
| TTCTGTGCTTGGGTTCTAACCTGTTGCCT (site TTCTGTGCTAG) | 0.0428 |
| TTGAAATCTTGGGTTCTAACCTGTTGCCT (site TTGAAATCTAG) | 0.131 |
| TTGAAATCTTGGGTTCTAACCTGTTGCCT (site TTGACATCTAG) | 0.0533 |
| TTGAAATCTTGGGTTCTAACCTGTTGCCT (site TTGAGATCTAG) | 0.0296 |
